These are literature values, as cited in US7803786B2, “Pharmaceutical co-crystal compositions and related methods of use” (Transform Pharmaceuticals, Inc., priority 2004, dated 2010).

For data set [1] the following is noted: co-crystal former; multiple values for multiple functionalities.
For data set [2] the following is noted: Cambridge Structural Database (piracetam), Merck Index (gentisic acid).

Consider `O=C(O)C(O)C(O)C(O)C(O)CO` (stereo not drawn) [Gluconic acid], for which, in data set [1], the “pKa Values” is reported as 3.76.

For `O=C(O)c1cc(O)ccc1O` [gentisic acid], in data set [2], the “known polymorphism of the free form” value is listed as “dimorphic”. For the molecule `NC(=O)CN1CCCC1=O` [piracetam], the “known polymorphism of the free form” value in data set [2] was “Three polymorphs”.
